# Results from paper PMC9856672, “SGC-CAMKK2-1: A Chemical Probe for CAMKK2” (Cells, 2023).
# Legend:
# [1] = Single dose IP pharmacokinetic study in mice; type: in vivo, CD-1 mice; conditions: mouse, 10 mg/kg IP, plasma at 0.5, 1, 3, 8 h
# Procedure: CD-1 mice with weights 23–25 g were purchased from Charles River Laboratories.
# The animal experiments were performed at Alliance Pharma (Malvern, PA, USA) in accordance with the guide for the care and use of laboratory animals. Alliance Pharma is accredited by the Association for Assessment and Accreditation of Laboratory Animal Care (AAALAC).
# The test compounds were dissolved in DMSO and then diluted to the appropriate concentration with the vehicle. For formulation we targeted the minimal amount of DMSO that could be used in combination with a formulation composed of 0.5% HPMC/0.2% Polysorbate 80. […] Blood was collected at t = 0.5, 1, 3, and 8 h and immediately spun for 3 min, the plasma was collected, and compound levels were quantified with HPLC/MS. The raw data are available in the Supplemental Information.
# With the probe molecule having favorable selectivity and potency in vitro and in a cellular context, we next wanted to determine its suitability for in vivo experiments. SGC-CAMKK2-1 (5) was progressed to a single dose mouse intraperitoneal (I.P) experiment.
# CSNK1E = target: T1, CSNK1E (Homo sapiens, UniProt P49674); assay: KINOMEscan 1 μM, CSNK1E; type: binding; conditions: 1000 nM; Entrez CSNK1E; read-out: Percent Control
# T1 construct: purchased Eurofins DiscoverX KINOMEscan
# From the text: (§1) Supplement cells-12-00287-s001.zip/File S2. KinomeScan data for the CAMKK2 probe and negative control.xlsx, sheet "SGC-CAMKK2-1" | column: Percent Control
# MELK = target: T2, MELK (Homo sapiens, UniProt Q14680); assay: KINOMEscan 1 μM, MELK; type: binding; conditions: 1000 nM; Entrez MELK; read-out: Percent Control
# T2 construct: purchased Eurofins DiscoverX KINOMEscan
# From the text: as §1
# FLT3 = target: T3, FLT3 (Homo sapiens, UniProt P36888); assay: KINOMEscan 1 μM, FLT3; type: binding; conditions: 1000 nM; Entrez FLT3; read-out: Percent Control
# T3 construct: purchased Eurofins DiscoverX KINOMEscan
# From the text: as §1
# WEE1 = target: T4, WEE1 (Homo sapiens, UniProt P30291); assay: KINOMEscan 1 μM, WEE1; type: binding; conditions: 1000 nM; Entrez WEE1; read-out: Percent Control
# T4 construct: purchased Eurofins DiscoverX KINOMEscan
# From the text: as §1
# IRAK3 = target: T5, IRAK3 (Homo sapiens, UniProt Q9Y616); assay: KINOMEscan 1 μM, IRAK3; type: binding; conditions: 1000 nM; Entrez IRAK3; read-out: Percent Control
# T5 construct: purchased Eurofins DiscoverX KINOMEscan
# From the text: as §1
# EPHA4 = target: T6, EPHA4 (Homo sapiens, UniProt P54764); assay: KINOMEscan 1 μM, EPHA4; type: binding; conditions: 1000 nM; Entrez EPHA4; read-out: Percent Control
# T6 construct: purchased Eurofins DiscoverX KINOMEscan
# From the text: as §1
# TEC = target: T7, TEC (Homo sapiens, UniProt P42680); assay: KINOMEscan 1 μM, TEC; type: binding; conditions: 1000 nM; Entrez TEC; read-out: Percent Control
# T7 construct: purchased Eurofins DiscoverX KINOMEscan
# From the text: as §1
# ANKK1 = target: T8, ANKK1 (Homo sapiens, UniProt Q8NFD2); assay: KINOMEscan 1 μM, ANKK1; type: binding; conditions: 1000 nM; Entrez ANKK1; read-out: Percent Control
# T8 construct: purchased Eurofins DiscoverX KINOMEscan
# From the text: as §1
# CAMK4 = target: T9, CAMK4 (Homo sapiens, UniProt Q16566); assay: KINOMEscan 1 μM, CAMK4; type: binding; conditions: 1000 nM; Entrez CAMK4; read-out: Percent Control
# T9 construct: purchased Eurofins DiscoverX KINOMEscan
# From the text: as §1
# MYO3A = target: T10, MYO3A (Homo sapiens, UniProt Q8NEV4); assay: KINOMEscan 1 μM, MYO3A; type: binding; conditions: 1000 nM; Entrez MYO3A; read-out: Percent Control
# T10 construct: purchased Eurofins DiscoverX KINOMEscan
# From the text: as §1
# PIK3CA(E542K) = target: T11, PIK3CA(E542K) (Homo sapiens, UniProt P42336, E542K); assay: DiscoverX KINOMEscan binding assay at 1 μM, PIK3CA(E542K); conditions: Compound Concentration 1000 nM, read-out: Percent Control
# T11 construct: purchased Eurofins DiscoverX KINOMEscan
# From the text: as §1
# PRP4 = target: T12, PRP4 (Homo sapiens, UniProt Q13523); assay: DiscoverX KINOMEscan binding assay at 1 μM, PRP4; conditions: PRP4 (PRPF4B); Compound Concentration 1000 nM; read-out: Percent Control
# T12 construct: purchased Eurofins DiscoverX KINOMEscan
# From the text: as §1
# WNK4 = target: T13, WNK4 (Homo sapiens, UniProt Q96J92); assay: DiscoverX KINOMEscan binding assay at 1 μM, WNK4; conditions: Compound Concentration 1000 nM, read-out: Percent Control
# T13 construct: purchased Eurofins DiscoverX KINOMEscan
# From the text: as §1
# ZAP70 = target: T14, ZAP70 (Homo sapiens, UniProt P43403); assay: DiscoverX KINOMEscan binding assay at 1 μM, ZAP70; conditions: Compound Concentration 1000 nM, read-out: Percent Control
# T14 construct: purchased Eurofins DiscoverX KINOMEscan
# From the text: as §1
# CAMK1 = target: T15, CAMK1 (Homo sapiens, UniProt Q14012); assay: KINOMEscan at 1 μM, CAMK1; type: binding; conditions: 1000 nM, read-out: Percent Control
# T15 construct: purchased Eurofins DiscoverX KINOMEscan
# From the text: (§2) Supplement cells-12-00287-s001.zip/File S2. KinomeScan data for the CAMKK2 probe and negative control.xlsx, sheet "SGC-CAMKK2-1N" | column: Percent Control
# ICK = target: T16, ICK (Homo sapiens, UniProt Q9UPZ9); assay: KINOMEscan at 1 μM, ICK; type: binding; conditions: 1000 nM, read-out: Percent Control
# T16 construct: purchased Eurofins DiscoverX KINOMEscan
# From the text: as §2
# TIE2 = target: T17, TIE2 (Homo sapiens, UniProt Q02763); assay: KINOMEscan at 1 μM, TIE2; type: binding; conditions: 1000 nM, read-out: Percent Control
# T17 construct: purchased Eurofins DiscoverX KINOMEscan
# From the text: as §2
# LATS1 = target: T18, LATS1 (Homo sapiens, UniProt O95835); assay: KINOMEscan at 1 μM, LATS1; type: binding; conditions: 1000 nM, read-out: Percent Control
# T18 construct: purchased Eurofins DiscoverX KINOMEscan
# From the text: as §2
# MEK2 = target: T19, MEK2 (Homo sapiens, UniProt P36507); assay: KINOMEscan at 1 μM, MEK2; type: binding; conditions: 1000 nM, read-out: Percent Control
# T19 construct: purchased Eurofins DiscoverX KINOMEscan
# From the text: as §2
# EPHA3 = target: T20, EPHA3 (Homo sapiens, UniProt P29320); assay: KINOMEscan at 1 μM, EPHA3; type: binding; conditions: 1000 nM, read-out: Percent Control
# T20 construct: purchased Eurofins DiscoverX KINOMEscan
# From the text: as §2
# PDGFRB = target: T21, PDGFRB (Homo sapiens, UniProt P09619); assay: KINOMEscan at 1 μM, PDGFRB; type: binding; conditions: 1000 nM, read-out: Percent Control
# T21 construct: purchased Eurofins DiscoverX KINOMEscan
# From the text: as §2
# BMPR1A = target: T22, BMPR1A (Homo sapiens, UniProt P36894); assay: KINOMEscan at 1 μM, BMPR1A; type: binding; conditions: 1000 nM, read-out: Percent Control
# T22 construct: purchased Eurofins DiscoverX KINOMEscan
# From the text: as §2
# DDR1 = target: T23, DDR1 (Homo sapiens, UniProt Q08345); assay: KINOMEscan at 1 μM, DDR1; type: binding; conditions: 1000 nM, read-out: Percent Control
# T23 construct: purchased Eurofins DiscoverX KINOMEscan
# From the text: as §2
# DYRK1B = target: T24, DYRK1B (Homo sapiens, UniProt Q9Y463); assay: KINOMEscan at 1 μM, DYRK1B; type: binding; conditions: 1000 nM, read-out: Percent Control
# T24 construct: purchased Eurofins DiscoverX KINOMEscan
# From the text: as §2
# DAPK1 = target: T25, DAPK1 (Homo sapiens, UniProt P53355); assay: KINOMEscan at 1 μM, DAPK1; type: binding; conditions: 1000 nM, read-out: Percent Control
# T25 construct: purchased Eurofins DiscoverX KINOMEscan
# From the text: as §2
# MAP3K15 = target: T26, MAP3K15 (Homo sapiens, UniProt Q6ZN16); assay: KINOMEscan binding assay at 1 μM, MAP3K15; conditions: Compound Concentration 1000 nM; read-out: Percent Control
# T26 construct: purchased Eurofins DiscoverX KINOMEscan
# From the text: as §2
# PKAC-alpha = target: T27, PKAC-alpha (Homo sapiens, UniProt P17612); assay: KINOMEscan binding assay at 1 μM, PKAC-alpha; conditions: Compound Concentration 1000 nM; read-out: Percent Control
# T27 construct: purchased Eurofins DiscoverX KINOMEscan
# From the text: as §2
# [2] = target: T28, RSK4(Kin.Dom.2-C-terminal) (Homo sapiens, UniProt Q9UK32); assay: KINOMEscan binding assay at 1 μM, RSK4(Kin.Dom.2-C-terminal); conditions: Compound Concentration 1000 nM; read-out: Percent Control
# T28 construct: RSK4(Kin.Dom.2-C-terminal); purchased Eurofins DiscoverX KINOMEscan
# From the text: as §2
# T10 sequence (Q8NEV4 whole entry): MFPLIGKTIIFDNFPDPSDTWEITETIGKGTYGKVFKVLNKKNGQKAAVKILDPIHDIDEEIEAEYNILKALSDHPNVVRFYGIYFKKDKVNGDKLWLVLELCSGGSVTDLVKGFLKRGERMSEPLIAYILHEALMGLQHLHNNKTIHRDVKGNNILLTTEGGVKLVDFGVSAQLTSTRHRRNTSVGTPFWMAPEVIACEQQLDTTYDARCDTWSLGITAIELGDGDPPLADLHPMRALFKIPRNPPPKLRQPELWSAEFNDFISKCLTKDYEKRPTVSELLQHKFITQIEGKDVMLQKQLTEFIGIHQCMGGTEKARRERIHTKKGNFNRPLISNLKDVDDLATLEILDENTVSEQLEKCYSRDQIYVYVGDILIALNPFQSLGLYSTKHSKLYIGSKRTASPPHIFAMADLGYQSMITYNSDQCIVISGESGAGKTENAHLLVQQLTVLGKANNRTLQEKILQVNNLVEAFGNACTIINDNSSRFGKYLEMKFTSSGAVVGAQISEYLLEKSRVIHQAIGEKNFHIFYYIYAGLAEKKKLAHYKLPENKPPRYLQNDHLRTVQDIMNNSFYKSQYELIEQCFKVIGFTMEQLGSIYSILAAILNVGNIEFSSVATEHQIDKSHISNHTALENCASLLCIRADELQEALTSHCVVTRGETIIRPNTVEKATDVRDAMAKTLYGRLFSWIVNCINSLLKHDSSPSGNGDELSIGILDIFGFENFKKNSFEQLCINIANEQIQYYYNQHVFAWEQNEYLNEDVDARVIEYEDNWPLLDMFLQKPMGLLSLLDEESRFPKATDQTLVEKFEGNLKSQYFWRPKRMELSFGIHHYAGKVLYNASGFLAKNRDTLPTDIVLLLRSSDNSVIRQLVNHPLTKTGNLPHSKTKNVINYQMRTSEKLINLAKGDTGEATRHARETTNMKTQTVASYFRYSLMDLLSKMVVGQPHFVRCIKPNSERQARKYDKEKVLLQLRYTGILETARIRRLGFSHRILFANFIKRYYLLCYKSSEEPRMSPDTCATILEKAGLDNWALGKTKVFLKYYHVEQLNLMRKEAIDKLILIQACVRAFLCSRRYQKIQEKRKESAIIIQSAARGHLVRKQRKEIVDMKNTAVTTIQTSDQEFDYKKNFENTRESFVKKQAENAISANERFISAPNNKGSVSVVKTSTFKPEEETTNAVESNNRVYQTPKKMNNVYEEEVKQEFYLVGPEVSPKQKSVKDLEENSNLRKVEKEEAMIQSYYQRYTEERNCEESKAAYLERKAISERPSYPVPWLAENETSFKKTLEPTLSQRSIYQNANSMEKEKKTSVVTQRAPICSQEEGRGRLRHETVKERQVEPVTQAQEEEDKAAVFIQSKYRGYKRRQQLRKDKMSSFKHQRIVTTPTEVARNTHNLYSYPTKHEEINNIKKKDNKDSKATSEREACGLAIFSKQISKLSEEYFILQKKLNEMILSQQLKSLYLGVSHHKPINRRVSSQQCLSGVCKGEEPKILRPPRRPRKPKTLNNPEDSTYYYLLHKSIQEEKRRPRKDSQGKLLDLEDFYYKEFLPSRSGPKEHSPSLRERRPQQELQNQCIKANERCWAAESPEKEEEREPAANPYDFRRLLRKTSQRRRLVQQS
# T9 sequence (Q16566 whole entry): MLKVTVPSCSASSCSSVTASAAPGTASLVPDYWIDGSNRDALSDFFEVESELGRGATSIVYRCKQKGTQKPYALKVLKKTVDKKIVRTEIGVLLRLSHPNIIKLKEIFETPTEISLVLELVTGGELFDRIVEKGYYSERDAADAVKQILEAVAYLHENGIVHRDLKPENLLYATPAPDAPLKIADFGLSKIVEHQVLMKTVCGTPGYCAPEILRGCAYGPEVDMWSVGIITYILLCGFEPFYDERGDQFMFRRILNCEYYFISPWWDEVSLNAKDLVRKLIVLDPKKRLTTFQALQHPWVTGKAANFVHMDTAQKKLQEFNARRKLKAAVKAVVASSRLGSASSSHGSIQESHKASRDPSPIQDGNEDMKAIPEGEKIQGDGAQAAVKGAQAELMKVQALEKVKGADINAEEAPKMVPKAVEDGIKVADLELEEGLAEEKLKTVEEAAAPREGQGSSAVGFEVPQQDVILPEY
# T1 sequence (P49674 whole entry): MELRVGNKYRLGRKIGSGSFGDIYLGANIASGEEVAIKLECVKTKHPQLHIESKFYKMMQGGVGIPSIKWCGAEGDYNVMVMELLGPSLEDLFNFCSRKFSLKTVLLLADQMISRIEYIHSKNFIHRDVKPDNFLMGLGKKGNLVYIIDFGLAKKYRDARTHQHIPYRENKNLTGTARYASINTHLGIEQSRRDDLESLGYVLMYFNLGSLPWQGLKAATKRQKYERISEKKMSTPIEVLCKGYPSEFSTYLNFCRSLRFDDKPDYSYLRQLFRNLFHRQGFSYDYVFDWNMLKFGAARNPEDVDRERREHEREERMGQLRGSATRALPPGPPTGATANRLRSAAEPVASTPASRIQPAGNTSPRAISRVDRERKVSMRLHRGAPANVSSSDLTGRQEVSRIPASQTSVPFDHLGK
# T19 sequence (P36507 whole entry): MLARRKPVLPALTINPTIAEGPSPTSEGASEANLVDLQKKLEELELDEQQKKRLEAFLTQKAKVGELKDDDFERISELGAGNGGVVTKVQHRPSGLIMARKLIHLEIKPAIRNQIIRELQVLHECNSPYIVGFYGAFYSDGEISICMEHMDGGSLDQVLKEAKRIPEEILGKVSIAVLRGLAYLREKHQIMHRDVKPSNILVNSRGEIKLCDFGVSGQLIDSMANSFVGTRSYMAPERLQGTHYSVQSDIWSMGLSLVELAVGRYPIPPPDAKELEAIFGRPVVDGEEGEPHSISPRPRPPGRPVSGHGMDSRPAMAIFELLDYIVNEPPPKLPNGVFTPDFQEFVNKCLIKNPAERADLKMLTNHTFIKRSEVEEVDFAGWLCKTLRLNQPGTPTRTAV
# T3 sequence (P36888 27-993): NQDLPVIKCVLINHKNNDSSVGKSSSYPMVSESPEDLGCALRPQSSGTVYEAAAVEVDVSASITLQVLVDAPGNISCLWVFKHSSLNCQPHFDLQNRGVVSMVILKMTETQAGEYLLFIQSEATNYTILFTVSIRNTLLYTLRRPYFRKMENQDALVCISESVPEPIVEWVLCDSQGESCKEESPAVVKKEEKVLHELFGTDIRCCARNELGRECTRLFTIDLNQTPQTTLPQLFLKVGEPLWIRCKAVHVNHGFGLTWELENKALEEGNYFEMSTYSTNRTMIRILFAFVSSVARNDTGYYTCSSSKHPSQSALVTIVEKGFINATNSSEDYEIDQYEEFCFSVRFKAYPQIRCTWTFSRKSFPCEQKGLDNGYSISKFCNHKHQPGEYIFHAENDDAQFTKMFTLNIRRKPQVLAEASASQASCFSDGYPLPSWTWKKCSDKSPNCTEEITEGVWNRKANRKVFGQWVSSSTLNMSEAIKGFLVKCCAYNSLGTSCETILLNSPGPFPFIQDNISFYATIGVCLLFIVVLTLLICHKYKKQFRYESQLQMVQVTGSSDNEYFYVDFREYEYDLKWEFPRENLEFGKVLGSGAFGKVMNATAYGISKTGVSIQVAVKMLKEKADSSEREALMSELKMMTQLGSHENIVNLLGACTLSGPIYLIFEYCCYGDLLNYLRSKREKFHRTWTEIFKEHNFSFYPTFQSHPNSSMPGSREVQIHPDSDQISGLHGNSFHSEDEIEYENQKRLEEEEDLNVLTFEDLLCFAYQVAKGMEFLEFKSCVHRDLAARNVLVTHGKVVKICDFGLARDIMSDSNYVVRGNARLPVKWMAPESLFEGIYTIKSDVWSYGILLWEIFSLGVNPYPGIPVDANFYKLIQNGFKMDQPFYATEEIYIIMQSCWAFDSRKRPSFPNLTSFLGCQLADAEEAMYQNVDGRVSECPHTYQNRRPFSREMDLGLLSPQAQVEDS
# T15 sequence (Q14012 whole entry): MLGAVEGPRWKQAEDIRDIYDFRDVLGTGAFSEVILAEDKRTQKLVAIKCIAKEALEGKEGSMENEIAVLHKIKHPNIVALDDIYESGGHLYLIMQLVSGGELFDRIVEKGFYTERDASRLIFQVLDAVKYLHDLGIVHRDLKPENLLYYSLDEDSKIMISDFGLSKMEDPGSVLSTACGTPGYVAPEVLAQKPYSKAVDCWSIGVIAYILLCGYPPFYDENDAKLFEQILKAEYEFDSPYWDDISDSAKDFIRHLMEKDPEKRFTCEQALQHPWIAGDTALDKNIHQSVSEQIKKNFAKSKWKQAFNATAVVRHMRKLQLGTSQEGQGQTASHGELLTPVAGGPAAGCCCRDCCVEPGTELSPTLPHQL
# T8 sequence (Q8NFD2 whole entry): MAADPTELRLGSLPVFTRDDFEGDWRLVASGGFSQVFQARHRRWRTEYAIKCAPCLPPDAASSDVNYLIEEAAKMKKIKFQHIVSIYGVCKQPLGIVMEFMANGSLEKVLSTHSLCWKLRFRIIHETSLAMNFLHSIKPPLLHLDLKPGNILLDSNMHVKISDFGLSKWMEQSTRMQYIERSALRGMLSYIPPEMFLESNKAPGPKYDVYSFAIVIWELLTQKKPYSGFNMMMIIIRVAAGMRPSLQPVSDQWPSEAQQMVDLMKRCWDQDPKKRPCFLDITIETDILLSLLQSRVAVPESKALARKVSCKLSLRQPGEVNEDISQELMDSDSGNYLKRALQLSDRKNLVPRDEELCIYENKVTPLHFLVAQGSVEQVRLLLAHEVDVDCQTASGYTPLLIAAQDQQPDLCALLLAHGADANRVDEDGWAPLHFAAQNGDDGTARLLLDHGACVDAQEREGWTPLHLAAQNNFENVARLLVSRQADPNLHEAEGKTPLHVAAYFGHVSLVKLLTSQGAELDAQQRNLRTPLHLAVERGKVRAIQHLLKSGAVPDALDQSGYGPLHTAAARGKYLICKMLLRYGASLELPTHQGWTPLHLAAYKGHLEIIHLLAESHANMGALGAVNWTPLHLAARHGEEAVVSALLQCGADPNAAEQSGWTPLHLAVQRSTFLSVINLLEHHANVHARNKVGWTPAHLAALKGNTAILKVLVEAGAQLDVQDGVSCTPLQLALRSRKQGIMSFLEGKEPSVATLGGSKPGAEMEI
compound,measurement,setting,value
Cc1cccc(-c2cnc3occ(-c4ccc(C(=O)O)c(C5CCCC5)c4)c3c2)c1 [Compound 5],plasma concentration / in vivo PK (in words),[1],poor in vivo PK
Cc1cccc(-c2cnc3occ(-c4ccc(C(=O)O)c(C5CCCC5)c4)c3c2)c1 [SGC-CAMKK2-1 (YL-36)],remaining binding at 1 µM,CSNK1E,75%
same,remaining binding at 1 µM,MELK,79%
same,remaining binding at 1 µM,FLT3,80%
same,remaining binding at 1 µM,WEE1,82%
same,remaining binding at 1 µM,IRAK3,88%
same,remaining binding at 1 µM,EPHA4,90%
same,remaining binding at 1 µM,TEC,95%
same,remaining binding at 1 µM,ANKK1,100%
same,remaining binding at 1 µM,CAMK4,100%
same,remaining binding at 1 µM,MYO3A,100%
same,remaining binding at 1 µM,PIK3CA(E542K),100%
same,remaining binding at 1 µM,PRP4,100%
same,remaining binding at 1 µM,WNK4,100%
same,remaining binding at 1 µM,ZAP70,100%
O=C(O)c1ccc(-c2coc3ncc(-c4ccccc4)cc23)cc1Cl [SGC-CAMKK2-1N (UNC-YL-83)],remaining binding at 1 µM,CAMK1,62%
same,remaining binding at 1 µM,ICK,71%
same,remaining binding at 1 µM,TIE2,79%
same,remaining binding at 1 µM,LATS1,83%
same,remaining binding at 1 µM,MEK2,88%
same,remaining binding at 1 µM,EPHA3,92%
same,remaining binding at 1 µM,PDGFRB,92%
same,remaining binding at 1 µM,BMPR1A,93%
same,remaining binding at 1 µM,DDR1,93%
same,remaining binding at 1 µM,DYRK1B,94%
same,remaining binding at 1 µM,DAPK1,100%
same,remaining binding at 1 µM,MAP3K15,100%
same,remaining binding at 1 µM,PKAC-alpha,100%
same,remaining binding at 1 µM,[2],100%
